Assay results from patent publication US9233912B2, “Devices and methods for crystallization” (Massachusetts Institute of Technology, priority 2013, dated 2016).
Like-named read-outs stand apart in the source and are kept apart here. One block for each compound: values may come before it.

Columns and labels:
[1] = Nucleator only experiments, in-line FBRM chord length distribution; type: physicochemical; conditions: FBRM at nucleator outlet, residence time 7.4 s and 10.3 s
Description: In some embodiments, Focused Beam Reflectance Measurement (FBRM) or similar technique may be used to obtain characteristic size information. FBRM, in some embodiments, provides an ability to measure objects (e.g., crystals) in suspensions, e.g., at full process concentration, without the need for sample extraction and sample preparation. In some embodiments, FBRM method of measurement may be used which is based on a measurement of Chord Length Distribution that simultaneously tracks the rate and degree of change in particle count and mean chord length. As used herein, the term “chord length” refers to the length of a line segment passing across a portion of a projection of an object on a two-dimensional plane, and whose end points lie on the edge of the projection. The term “mean chord length” refers to the mean length of multiple chords, e.g., multiple randomly orientated chords. Methods for measuring mean particle count and mean chord length are well known in the art. See, […]. Particle Size Measurements: Fundamentals, Practice, Quality. […] Copyright 2009 Springer Science+Business Media B.V., and references cited therein.

[2] = Integrated nucleator-tubular crystallizer experiment, crystal size by microscopic analysis; type: physicochemical
Experimental: (§1) To perform the analysis, a drop of solution or 1 mg of crystals dispersed in a few drops of mineral oil was first imaged using a 5× objective.
These experiments involved connecting the generator to a tubular crystallizer for crystal growth. This integrated nucleator-crystallizer experiment was conducted with a 49 mL tubular coiled crystallizer (Masterflex® L/S®, Chem-Durance® Bio tubing, ID=3.2 mm, Length=20 ft) using 1.54% acetaminophen solution. During the experiment, relatively small crystals generated in the nucleator were pumped into the tubular crystallizer at the same flow rate as the nuclei generator. The small crystals then grew in the crystallizer for a fixed residence time before the crystals were collected by vacuum filtration, as shown in FIG. 2. Two experiments at flow rates of 14.2 and 11.3 mL/min were conducted. The particle size distributions of the crystals were determined by microscopic analysis (Nikon Eclipse ME600).
The nuclei generator can be integrated into crystallization processes in which the production of crystals of specific size distribution is desired (See, e.g., FIGS. 1B, 1C, 2, 12). In some embodiments, with the continuous generation of nuclei, the nucleation and growth events were decoupled. In this case, nucleation was triggered in the nucleator, while growth continued in the crystallizer. Multiple integrated nucleator—tubular crystallizer experiments were conducted that illustrate this process.

[3] = w/w = g chemical/g solution; cited from earlier work
[4] = Experimental: as §1
[5] = Seeded Crystallization
Experimental: as §1
A continuous crystallization process with seeding was evaluated for comparison with an integrated nucleator-crystallizer device. A schematic diagram of the seeded crystallization experiment is depicted in FIG. 13. Seed crystals (nuclei) were obtained from antisolvent crystallization of glycine (to generate small crystals). Crystals obtained from antisolvent crystallization were sieved through a series of sieves with openings of 90, 63, and 45 μm. Seeds were collected from the 45 μm sieve.
For the seeded crystallization experiment, the crystallizer was first filled with the feed solution. Once filled, the process was seeded by pumping (50 mL/min) a suspension of 0.05 g seed in 25 mL feed solution into the crystallizer. After seeding, the crystallization process proceeded with continuous input of clear feed solution at 50 mL/min. Glycine crystals were collected by vacuum filtration at the crystallizer outlet. Except for the seeding procedure, the other experimental conditions for the seeded crystallization experiment were kept identical to the integrated nucleator-crystallizer experiment of Example 4.
Feed solution concentration: 24% (20% above saturation)
Residence time in crystallizer (100 mL): 2 min
Crystallizer holding temperature: 28° C.
The data were analyzed with crystals collected between 4-5 residence times (RT) when the device was at steady state.
To investigate the feasibility of the seeded experiment, a second experiment was conducted at lower crystallizer temperature (higher supersaturation that could potentially improve crystal growth rate).

[6] = Integrated nucleator-crystallizer (Coflore crystallizer) experiment, crystal size; conditions: for d0.1 / d0.5 / d0.9: Integrated nucleator crystallization

span (D (0.9)-D (0.1)) of chord length distribution [1]: ≈ 20 μm
average growth rate inside the nucleator ([2]; flow rate 11.31 mL/min): 1.47×10^−7 m/s
mean size of crystals leaving the nucleator ([2]; flow rate 11.31 mL/min): 6.7 μm
mean size of crystals after tubular crystallizer ([2]; flow rate 11.31 mL/min, after 4.3 min in the tubular crystallizer): 13.5 μm
average growth rate inside the crystallizer ([2]; flow rate 11.31 mL/min, tubular crystallizer): 2.62×10^−7 m/s
mean size of small crystals produced ([2]; integrated nucleator and tubular crystallizer, FIG. 9): 12 μm
SMILES: CC(=O)Nc1ccc(O)cc1 [Acetaminophen, acetaminophen]
Saturation concentration at 25° C. (Cs) [3]: 1.48^16 % w/w

size below which 90% of the nuclei lie ([4]; 21% glycine solution, 30 s residence time, nucleator only): less than 12.28 μm
coefficient of variation (CV) of nuclei size ([4]; 21% glycine solution, three residence times): ~1
size of nuclei obtained (mostly) ([4]; 21% glycine solution, three residence times (30 s, 2 min, 3.5 min)): less than 20 μm
mean size of small crystals generated with the nucleator ([4]; glycine experiments, nucleator device): up to 14 μm
d0.1 ([5]; Run 1 (Tcryst = 28° C.)): 6.3 μm
d0.5 ([5]; Run 1 (Tcryst = 28° C.)): 14.6 μm
d0.9 ([5]; Run 1 (Tcryst = 28° C.)): 44.6 μm
d0.1 ([5]; Run 2 (Tcryst = 25° C.)): 7.4 μm
d0.5 ([5]; Run 2 (Tcryst = 25° C.)): 28.8 μm
d0.9 ([5]; Run 2 (Tcryst = 25° C.)): 90.3 μm
d0.1 ([5]; Seed): 2.4 μm
d0.5 ([5]; Seed): 10.3 μm
d0.9 ([5]; Seed): 50.8 μm
average size of nuclei upon leaving the nucleator ([6]; 24% solution, 50 mL/min, approx. 10 s in nucleator): 14 μm
average size of crystals from Coflore crystallizer ([6]; 24% solution, 50 mL/min, approx. 2 minutes in crystallizer, 28° C.): 48 μm
d0.1 ([6]; Coflore): 13.9 μm
d0.5 ([6]; Coflore): 34.1 μm
d0.9 ([6]; Coflore): 91.9 μm
d0.1 ([6]; Nucleator): 2.4 μm
d0.5 ([6]; Nucleator): 8.8 μm
d0.9 ([6]; Nucleator): 27.2 μm
SMILES: NCC(=O)O [Glycine, glycine]
Saturation concentration at 25° C. (Cs) [3]: 20^15 % w/w
